Reference: patent US11702418B2, “SOS1 inhibitors” (priority 2019, dated 2023)
Structures can show the parent of a compound that is named as a salt. Where two headings read alike, the source gives them in different places.

Key:
[1] = target: recombinant human SOS1 polypeptide (amino acids 560-1049) (Homo sapiens (Human), UniProt Q07889); assay: biochemical; type: binding; details: read-out: Ki, Inhibition of Labeled Tracer Binding to SOS1
Protocol: The ability of a compound of Formula (I) to bind to SOS1 was measured using a HTRF displacement assay. […] After a 1-hour incubation at room temperature, the HTRF signal was measured using Clairostar plate reader (BMG Labtech) according to the manufacturer's instructions. Excitation filter EX-TR was used, and emission 1 was detected at 650-610 nm and emission 2 detected at 620-610 nm. The HTRF ratio was calculated using the formula: [emission 1/emission 2]*10000.
Background signals were calculated from well with a 10 μM inhibitor, known to inhibit 100% at that concentration. The background subtracted signals were converted to % binding relative to DMSO controls. Data were analyzed using XLFIT software (IDBS) using a Morrison equation for competitive binding and Ki's were generated compound of Formula (I).

pERK in MKN1 cells = assay: cells; type: cell-based; details: Homo sapiens
Protocol: The cells were incubated for approximately 0.5-1 hour with the compounds solubilized in DMSO at 37° C. Cells were immediately fixed by adding 50 μL of 4% formaldehyde to all wells in a fume hood and the plates were incubated for 20 minutes at room temperature. The formaldehyde was discarded from the plates and 150 μL of ice-cold methanol was added to permeabilize the cells for 10 minutes at −20° C. The methanol was discarded from each of the plates and any liquid remaining in the plate by tapping the plate against paper towels. […] The plates were incubated overnight at 4° C. on a shaker.
On Assay day 2, the primary antibody solution was removed. […] The secondary antibody solution as removed and each plate was washed with PBST 3× times. Any liquid remaining was discarded and the plate was imaged using the Licor Odyssey machine according to the manufacturer's instruction, using a set focus length at 3 mm and both 800 nm and 700 nm filters. The GAPDH normalized scan values for each well were divided by the average of vehicle wells to get the % of pERK inhibition. The IC50 values were then calculated with the Graph pad Prism software.

[2] = HTRF displacement, Cy5 labelled tracer, Morrison equation for competitive binding
[3] = MKN-1, pERK inhibition, In-Cell Western, MKN1 or H358 cells (Table 24 does not say which), 0.5-1 hour incubation, read-out: IC50

recombinant human SOS1 polypeptide (amino acids 560-1049), sequence (Q07889 560-1049): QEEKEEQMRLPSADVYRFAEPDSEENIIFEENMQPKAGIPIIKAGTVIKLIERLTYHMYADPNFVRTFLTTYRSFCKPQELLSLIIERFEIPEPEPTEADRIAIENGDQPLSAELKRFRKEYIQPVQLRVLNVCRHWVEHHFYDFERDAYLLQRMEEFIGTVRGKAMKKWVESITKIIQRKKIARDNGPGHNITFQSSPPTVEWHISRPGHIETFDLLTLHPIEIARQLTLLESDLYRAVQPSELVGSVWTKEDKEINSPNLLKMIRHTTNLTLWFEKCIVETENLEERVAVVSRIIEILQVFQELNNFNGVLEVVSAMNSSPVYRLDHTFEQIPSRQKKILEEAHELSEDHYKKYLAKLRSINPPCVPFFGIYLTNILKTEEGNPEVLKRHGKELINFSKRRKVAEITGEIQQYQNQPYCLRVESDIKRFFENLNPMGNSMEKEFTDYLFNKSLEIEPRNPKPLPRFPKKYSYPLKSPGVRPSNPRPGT

SMILES | Ki [1, 2] [nM] | IC50 (pERK in MKN1 cells; [3]) [nM] | Ki [1] [nM] | IC50 (pERK in MKN1 cells; MKN-1) [nM]
Cc1cc([C@@H](C)Nc2nnc(C)c3ccc(N4CCOCC4)cc23)cc(C(F)(F)F)c1 [Example 10-61, (R)-4-methyl-N-(1-(3-methyl-5-(trifluoromethyl)phenyl)ethyl)-7-morpholinophthalazin-1-amine] | 1.61 | 57 | – | –
Cc1c([C@@H](C)Nc2nnc(C)c3ccc(N4CCC(C)(N(C)C)CC4)cc23)cccc1C(F)(F)F [Example 10-42, (R)-7-(4-(dimethylamino)-4-methylpiperidin-1-yl)-4-methyl-N-(1-(2-methyl-3-(trifluoromethyl)phenyl)ethyl)phthalazin-1-amine hydrochloride salt] | – | – | 0.31 | 43
Cc1c([C@@H](C)Nc2nnc(C)c3ccc(N4CCNCC(F)(F)C4)cc23)cccc1C(F)(F)F [Example 10-5, (R)-7-(6,6-difluoro-1,4-diazepan-1-yl)-4-methyl-N-(1-(2-methyl-3-(trifluoromethyl)phenyl)ethyl)phthalazin-1-amine] | < 0.01 | 108 | – | –
Cc1c(C#N)cccc1[C@@H](C)Nc1nnc(C)c2ccc(N3CCC(F)(F)CC3)cc12 [Example 10-67, (R)-3-(1-((7-(4,4-difluoropiperidin-1-yl)-4-methylphthalazin-1-yl)amino)ethyl)-2-methylbenzonitrile] | 2.57 | 44 | – | –
Cc1c(C#N)cccc1[C@@H](C)Nc1nnc(C)c2ccc(O[C@H]3CCOC3)cc12 [Example 13-3] | 12.2 | 195 | – | –
Cc1c([C@@H](C)Nc2nnc(C)c3ccc(O[C@H]4CCOC4)cc23)cc(N)cc1C(F)(F)F [Example 15-3, N-((R)-1-(5-amino-2-methyl-3-(trifluoromethyl)phenyl)ethyl)-4-methyl-7-(((S)-tetrahydrofuran-3-yl)oxy)phthalazin-1-amine] | 0.94 | 34 | – | –
CNCc1ccccc1-c1ccc([C@@H](C)Nc2nnc(C)c3ccc(C)cc23)s1 [Example 8-1, (R)-4,7-di methyl-N-(1-(5-(2-((methylamino)methyl)phenyl)thiophen-2-yl)ethyl)phthalazin-1-amine] | 1.38 | 164 | – | –
Cc1c([C@@H](C)Nc2nnc(C)c3ccc(N4CC(O)C4)cc23)cccc1C(F)(F)F [Example 10-48, (R)-1-(1-methyl-4-((1-(2-methyl-3-(trifluoromethyl)phenyl)ethyl)amino)phthalazin-6-yl)azetidin-3-ol] | 1.35 | 75 | – | –
Cc1c([C@@H](C)Nc2nnc(C)c3cnc(N4C[C@H](C)O[C@@H](C)C4)cc23)cccc1C(F)(F)F [Example 12-6] | 0.87 | 522 | – | –
Cc1nnc(N[C@H](C)c2cc(N)cc(C(F)(F)F)n2)c2cc(N3C[C@H]4C[C@@H]3CO4)ccc12 [Example 16-8, N-((R)-1-(4-amino-6-(trifluoromethyl)pyridin-2-yl)ethyl)-7-((1R, 4R)-2-oxa-5-azabicyclo[2.2.1]heptan-5-yl)-4-methylphthalazin-1-amine] | 21.2 | 93 | – | –
Cc1c([C@@H](C)Nc2nnc(C)c3ccc(N4CCOCC4)cc23)cc(F)cc1C(F)(F)F [Example 21-8, (R)—N-(1-(5-fluoro-2-methyl-3-(trifluoromethyl)phenyl)ethyl)-4-methyl-7-morpholinophthalazin-1-amine] | 3.17 | 90 | – | –
Cc1c([C@@H](C)Nc2nnc(C)c3cnc(N4CC(O)C4)cc23)cccc1C(F)(F)F [Example 12-22] | 1.24 | 89 | – | –
Cc1nnc(N[C@H](C)c2cc(N)cc(C(F)(F)F)n2)c2cc(N3CC4CC(C3)O4)ccc12 [Example 16-4, N-((R)-1-(4-amino-6-(trifluoromethyl)pyridin-2-yl)ethyl)-7-(6-oxa-3-azabicyclo[3.1.1]heptan-3-yl)-4-methylphthalazin-1-amine] | 10.4 | 371 | – | –
Cc1cc(F)ccc1[C@@H](C)Nc1nnc(C)c2cnc(N3CC4CC(C3)O4)cc12 [Example 12-84] | 43.4 | 280 | – | –
